Values quoted from earlier work as cited in patent US20110020841A1, “CENTROSOME AMPLIFICATION AS A BIOSENSOR FOR DNA DAMAGE” (National University of Ireland, Galway, priority 2006, published 2011).

Tested on: Chk1 kinase
Settings: inhibition of Chk1 kinase with the drug; vertebrate cells; reference 11

In the case of CN[C@@H]1C[C@H]2O[C@@](C)([C@@H]1OC)n1c3ccccc3c3c4c(c5c6ccccc6n2c5c31)C(=O)N[C@@H]4O [UCN-01], the “DNA damage-induced centrosome amplification” value is given as “suppresses DNA damage-centrosome amplification”.
